Data taken from patent US9795139B2, “Molecules having pesticidal utility, and intermediates, compositions, and processes, related thereto” (priority 2015, dated 2017).

Assays:
[1] = test system: Beet Armyworm (Spodoptera exigua, LAPHEG); test: Bioassay on Beet Armyworm (BAW), 128-well diet tray assay; type: in vivo; conditions: 168 h, 50 μg/cm^2 on artificial diet, second instar larvae, 25° C., five to seven days, average of eight wells, read-out: BAW % Control (or Mortality) rating
Description: (§1) Certain molecules disclosed in this document were tested against BAW and CL using procedures described in the following examples. In the reporting of the results, the “BAW & CL Rating Table” was used (See Table Section).
Bioassays on BAW were conducted using a 128-well diet tray assay. One to five second instar BAW larvae were placed in each well (3 mL) of the diet tray that had been previously filled with approximately 1.5 mL of artificial diet to which 50 μg/cm^2 of the test molecule (dissolved in 50 μL of 90:10 acetone-water mixture) had been applied (to each of eight wells) and then allowed to dry. Trays were covered with a clear self-adhesive cover, vented to allow gas exchange, and held at 25° C., 14:10 light-dark for five to seven days. Percent mortality was recorded for the larvae in each well; activity in the eight wells was then averaged. The results are indicated in the table entitled “Table ABC: Biological Results” (See Table Section).

[2] = test system: Cabbage Looper (Trichoplusia ni, TRIPNI); test: Bioassay on Cabbage Looper (CL), 128-well diet tray assay; type: in vivo; conditions: 168 h, 50 μg/cm^2 on artificial diet, second instar larvae, 25° C., five to seven days, average of eight wells, read-out: CL % Control (or Mortality) rating
Description: as §1
Bioassays on CL were conducted using a 128-well diet tray assay. one to five second instar CL larvae were placed in each well (3 mL) of the diet tray that had been previously filled with 1 mL of artificial diet to which 50 μg/cm^2 of the test molecule (dissolved in 50 μL of 90:10 acetone-water mixture) had been applied (to each of eight wells) and then allowed to dry. Trays were covered with a clear self-adhesive cover, vented to allow gas exchange, and held at 25° C., 14:10 light-dark for five to seven days. Percent mortality was recorded for the larvae in each well; activity in the eight wells was then averaged. The results are indicated in the table entitled “Table ABC: Biological Results” (See Table Section).

SMILES | mortality at 50 µg/cm2 [1] [%] | mortality at 50 µg/cm2 [2] [%]
O=C(NC1CNC1)c1cc(NC(=O)[C@H]2[C@H](c3cc(Cl)cc(Cl)c3)C2(Cl)Cl)ccc1Cl (relative stereo) [Molecule F59, trans-N-(azetidin-3-yl)-2-chloro-5-(2,2-dichloro-3-(3,5-dichlorophenyl)cyclopropanecarboxamido) benzamide] | 50 to 100 | 50 to 100
O=C(NC1CCSC1)c1cc(NC(=O)[C@H]2[C@H](c3cc(Cl)cc(Cl)c3)C2(Cl)Cl)ccc1Cl (relative stereo) [Molecule F7, trans-2-Chloro-5-(2,2-dichloro-3-(3,5-dichlorophenyl)cyclopropanecarboxamido)-N-(tetrahydrothiophen-3-yl)benzamide] | 50 to 100 | 50 to 100
N#CC1(NC(=O)c2cc(NC(=O)[C@H]3[C@H](c4cc(Cl)c(F)c(Cl)c4)C3(Cl)Cl)ccc2Cl)CC1 (relative stereo) [Molecule F31, trans-2-Chloro-N-(1-cyanocyclopropyl)-5-(2,2-dichloro-3-(3,5-dichloro-4-fluorophenyl)cyclopropanecarboxamido)benzamide] | 50 to 100 | 50 to 100
N#CC1(NC(=O)c2cc(NC(=O)[C@H]3[C@H](c4ccc(C(F)(F)F)cc4)C3(Cl)Cl)ccc2Cl)CC1 (relative stereo) [Molecule F23, trans-2-Chloro-N-(1-cyanocyclopropyl)-5-(2,2-dichloro-3-(4-(trifluoromethyl)phenyl)cyclopropanecarboxamido)benzamide] | 50 to 100 | 50 to 100
O=C(NC1CC(F)(F)C1)c1cc(NC(=O)[C@H]2[C@H](c3ccccc3)C2(Cl)Cl)ccc1Cl (relative stereo) [Molecule F37, trans-2-Chloro-5-(2,2-dichloro-3-phenylcyclopropanecarboxamido)-N-(3,3-difluorocyclobutyl)benzamide] | 50 to 100 | 50 to 100
N#CC1(NC(=O)c2cc(NC(=O)[C@H]3[C@H](c4ccc(F)c(Cl)c4)C3(Cl)Cl)ccc2Cl)CC1 (relative stereo) [PF3, trans-2-Chloro-N-(1-cyanocyclopropyl)-5-(2,2-dichloro-3-(3-chloro-4-fluorophenyl)cyclopropane-1-carboxamido)benzamide] | 50 to 100 | 50 to 100
N#CC1(NC(=O)c2cc(NC(=O)[C@H]3[C@H](c4cc(Cl)cc(C(F)(F)F)c4)C3(Cl)Cl)ccc2Cl)CC1 (relative stereo) [Molecule F27, trans-2-Chloro-N-(1-cyanocyclopropyl)-5-(2,2-dichloro-3-(3-chloro-5-(trifluoromethyl)phenyl)cyclopropanecarboxamido)benzamide] | 50 to 100 | 50 to 100
Cc1c(Cl)cc([C@H]2[C@H](C(=O)Nc3ccc(Cl)c(C(=O)NC4(C#N)CC4)c3)C2(Cl)Cl)cc1Cl (relative stereo) [Molecule F49, trans-2-Chloro-N-(1-cyanocyclopropyl)-5-(2,2-dichloro-3-(3,5-dichloro-4-methylphenyl)cyclopropanecarboxamido)benzamide] | 50 to 100 | 50 to 100
CN(C(=O)c1cc(NC(=O)[C@H]2[C@H](c3cc(Cl)cc(Cl)c3)C2(Cl)Cl)ccc1Cl)C1(C#N)CC1 (relative stereo) [PF20, trans-2-Chloro-N-(1-cyanocyclopropyl)-5-(2,2-dichloro-3-(3,5-dichloro-phenyl)cyclopropane-1-carboxamido)-N-methylbenzamide] | 50 to 100 | 50 to 100
N#CC1(NC(=O)c2cc(NC(=O)[C@H]3[C@H](c4ccc(Cl)c(F)c4)C3(Cl)Cl)ccc2Cl)CC1 (relative stereo) [PF2, trans-2-Chloro-N-(1-cyanocyclopropyl)-5-(2,2-dichloro-3-(4-chloro-3-fluorophenyl)cyclopropane-1-carboxamido)benzamide] | 50 to 100 | 50 to 100
N#CC1(NC(=O)c2cc(NC(=O)[C@H]3[C@H](c4cc(C(F)(F)F)cc(C(F)(F)F)c4)C3(Cl)Cl)ccc2Cl)CC1 (relative stereo) [Molecule F25, trans-5-(3-(3,5-Bis(trifluoromethyl)phenyl)-2,2-dichlorocyclopropanecarboxamido)-2-chloro-N-(1-cyanocyclopropyl)benzamide] | 50 to 100 | 50 to 100
O=C(NC1CC(F)(F)C1)c1cc(NC(=O)[C@H]2[C@H](c3cc(Cl)c(Cl)c(Cl)c3)C2(Cl)Cl)ccc1Cl (relative stereo) [Molecule F6, trans-2-Chloro-5-(2,2-dichloro-3-(3,4,5-trichlorophenyl)cyclopropanecarboxamido)-N-(3,3-difluorocyclobutyl)benzamide] | 50 to 100 | 50 to 100
O=C(NC1CC(F)(F)C1)c1cc(NC(=O)[C@H]2[C@H](c3cc(Cl)c(Cl)cc3Cl)C2(Cl)Cl)ccc1Cl (relative stereo) [Molecule F20, trans-2-Chloro-5-(2,2-dichloro-3-(2,4,5-trichlorophenyl)cyclopropanecarboxamido)-N-(3,3-difluorocyclobutyl)benzamide] | 50 to 100 | 50 to 100
O=C(NC1CS(=O)(=O)C1)c1cc(NC(=O)[C@H]2[C@H](c3cc(Cl)c(Cl)c(Cl)c3)C2(Cl)Cl)ccc1Cl (relative stereo) [Molecule F58, trans-2-chloro-5-(2,2-dichloro-3-(3,4,5-trichlorophenyl)cyclopropanecarboxamido)-N-(1,1-dioxidothietan-3-yl)benzamide] | 50 to 100 | 50 to 100
O=C(NN1CCOCC1)c1cc(NC(=O)[C@H]2[C@H](c3cc(Cl)cc(Cl)c3)C2(Cl)Cl)ccc1Cl (relative stereo) [Molecule F52, trans-2-Chloro-5-(2,2-dichloro-3-(3,5-dichlorophenyl)cyclopropanecarboxamido)-N-morpholinobenzamide] | 50 to 100 | 50 to 100
O=C(NC1CC(F)(F)C1)c1cc(NC(=O)[C@H]2[C@H](c3cc(C(F)(F)F)cc(C(F)(F)F)c3)C2(Cl)Cl)ccc1Cl (relative stereo) [Molecule F24, trans-5-(3-(3,5-Bis(trifluoromethyl)phenyl)-2,2-dichlorocyclopropanecarboxamido)-2-chloro-N-(3,3-difluorocyclobutyl)benzamide] | 50 to 100 | 50 to 100
O=C(NC1CN(C(=O)C(F)(F)F)C1)c1cc(NC(=O)[C@H]2[C@H](c3cc(Cl)cc(Cl)c3)C2(Cl)Cl)ccc1Cl (relative stereo) [Molecule F60, trans-2-chloro-5-(2,2-dichloro-3-(3,5-dichlorophenyl)cyclopropanecarboxamido)-N-(1-(2,2,2-trifluoroacetyl)azetidin-3-yl)benzamide] | 50 to 100 | 50 to 100
O=C(NC1CC(F)(F)C1)c1cc(NC(=O)[C@H]2[C@H](c3cc(Br)cc(Br)c3)C2(Cl)Cl)ccc1Cl (relative stereo) [Molecule F28, trans-2-Chloro-5-(2,2-dichloro-3-(3,5-dibromophenyl)cyclopropanecarboxamido)-N-(3,3-difluorocyclobutyl)benzamide] | 50 to 100 | 50 to 100
Cc1cc(Cl)cc([C@H]2[C@H](C(=O)Nc3ccc(Cl)c(C(=O)NC4(C#N)CC4)c3)C2(Cl)Cl)c1 (relative stereo) [Molecule F47, trans-2-Chloro-N-(1-cyanocyclopropyl)-5-(2,2-dichloro-3-(3-chloro-5-methylphenyl)cyclopropanecarboxamido)benzamide] | 50 to 100 | 50 to 100
O=C(NC1C[S+]([O-])C1)c1cc(NC(=O)C2C(c3cc(Cl)c(Cl)c(Cl)c3)C2(Cl)Cl)ccc1Cl (single isomer, unassigned) [Molecule F56, trans-2-chloro-5-(2,2-dichloro-3-(3,4,5-trichlorophenyl)cyclopropanecarboxamido)-N-(1-oxidothietan-3-yl)benzamide] | 50 to 100 | 50 to 100
N#CC1(NC(=O)c2cc(NC(=O)[C@H]3[C@H](c4cc(Br)cc(Br)c4)C3(Cl)Cl)ccc2Cl)CC1 (relative stereo) [Molecule F29, trans-2-Chloro-N-(1-cyanocyclopropyl)-5-(2,2-dichloro-3-(3,5-dibromophenyl)cyclopropanecarboxamido)benzamide] | 50 to 100 | 50 to 100
N#CC1(NC(=O)c2cc(NC(=O)[C@H]3[C@H](c4ccccc4)C3(Cl)Cl)ccc2Cl)CC1 (relative stereo) [Molecule F38, trans-2-Chloro-N-(1-cyanocyclopropyl)-5-(2,2-dichloro-3-phenylcyclopropanecarboxamido)benzamide] | 50 to 100 | 50 to 100
